For assay [1], the target named is GDP-bound NRAS wild-type protein (Homo sapiens, UniProt P01111). In words: Binding to NRAS by surface plasmon resonance (SPR), KD and KD ratio to KRAS. Particulars: ratio of the KD value with respect to GDP-bound NRAS wild-type protein to the KD value with respect to KRAS. Summed up:
(§1)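 Each cycle, GDP-bound biotin-Avi RAS was captured (~100–300 RU), compound concentrations were injected low to high for 75 s each at 100 µL/min, then the chip was regenerated. Buffer: HBS pH 7.4, 10 mM MgCl2, 10 µM GDP, 1 mM DTT, 4% DMSO; 30°C. KD from a 1:1 binding model.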

In another assay the target is HRAS wild-type protein (Homo sapiens, UniProt P01112). In words: Binding to HRAS by surface plasmon resonance (SPR), KD and KD ratio to KRAS. Conditions: ratio of the KD value with respect to HRAS wild-type protein to the KD value with respect to KRAS. The method, boiled down: as §1
Assay [2] deals with human lung cancer strain NCI-H441. The assay is classed as cell-based. The method, boiled down:
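Signal came from […] measured per well once the reagent was added. Beforehand, cells were cultured at 37°C and 5% carbon dioxide on a compound series serially diluted in dimethyl sulfoxide.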

SMILES strings stand for the structures.

These results are taken from patent publication EP4603105A1, “PHARMACEUTICAL COMPOSITION CONTAINING CYCLIC COMPOUND HAVING SELECTIVE KRAS INHIBITORY EFFECT AGAINST HRAS AND NRAS” (CHUGAI SEIYAKU KABUSHIKI KAISHA, priority 2022, dated 2024).

Sequence of HRAS wild-type protein (P01112 whole entry): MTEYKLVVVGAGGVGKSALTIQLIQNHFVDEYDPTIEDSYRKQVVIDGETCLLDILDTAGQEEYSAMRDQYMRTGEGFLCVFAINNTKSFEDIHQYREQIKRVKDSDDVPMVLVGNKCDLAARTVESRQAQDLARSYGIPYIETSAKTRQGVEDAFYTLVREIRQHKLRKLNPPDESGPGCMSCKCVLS
Sequence of GDP-bound NRAS wild-type protein (P01111 whole entry): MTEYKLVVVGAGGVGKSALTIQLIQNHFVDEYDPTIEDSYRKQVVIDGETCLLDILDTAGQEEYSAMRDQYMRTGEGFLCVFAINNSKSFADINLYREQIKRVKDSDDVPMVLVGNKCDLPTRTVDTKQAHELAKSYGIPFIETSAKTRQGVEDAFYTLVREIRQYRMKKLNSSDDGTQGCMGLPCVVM

By IC50 is commonly meant the concentration at which inhibition is half-maximal. Higher therefore signals a need for much substance. Turning to `CC[C@H](C)[C@@H]1NC(=O)[C@H](C2CCC2)N(C)C(=O)C[C@@H](C(=O)N(C)CC)N(C)C(=O)[C@H](C2CCCC2)N(C)C(=O)C2(CC(C)(C)C2)NC(=O)[C@@H]2C[C@H](C)CN2C(=O)[C@H](CCc2ccc(C(F)(F)F)c(OC)c2)NC(=O)CN(C)C(=O)[C@H](Cc2ccc(C(F)(F)F)cc2)N2CC/C=C\C[C@@H](C2=O)N(C)C(=O)CN(C)C1=O` [PP2009], in assay [1], the “NRAS /KRAS” value is “A (a compound having 10 or more and less than 20 is denoted as A)”. For the same compound, the “HRAS /KRAS” value at HRAS wild-type protein was “A (a compound having 10 or more and less than 20 is denoted as A)”. In addition, the midpoint of inhibition in assay [2], the IC50, lay at 19.7 nM.

Regarding `CCCN(C)C(=O)[C@@H]1CC(=O)N(C)[C@@H](CC(F)F)C(=O)N[C@@H]([C@@H](C)CC)C(=O)N(C)CC(=O)N(C)[C@H]2C/C=C\CCN(C2=O)[C@@H](Cc2ccc(C(F)(F)F)cc2)C(=O)N(C)CC(=O)N[C@@H](CCc2ccc(C(F)(F)F)c(OC)c2)C(=O)N2C[C@H](OCC)C[C@H]2C(=O)NC2(CC(C)(C)C2)C(=O)N(C)[C@@H](C2CCCC2)C(=O)N1C` [PP2010], the “NRAS /KRAS” value in assay [1] was “A (a compound having 10 or more and less than 20 is denoted as A)”. Also, the “HRAS /KRAS” value on HRAS wild-type protein was “B (a compound having 3 or more and less than 10 is denoted as B)”. In assay [2], this compound had an IC50 of 6.6 nM.

For the compound `CC[C@H](C)[C@@H]1NC(=O)[C@H](C2CCC2)N(C)C(=O)C[C@@H](C(=O)N(C)C)N(C)C(=O)[C@H](C2CCCC2)N(C)C(=O)C2(CC(C)(C)C2)NC(=O)[C@@H]2C[C@H](C)CN2C(=O)[C@H](CCc2ccc(C(F)(F)F)c(OC)c2)NC(=O)CN(C)C(=O)[C@H](Cc2ccc(C(F)(F)F)cc2)N2CC/C=C\C[C@@H](C2=O)N(C)C(=O)CN(C)C1=O` [PP2011], in assay [1], the “NRAS /KRAS” value is “A (a compound having 10 or more and less than 20 is denoted as A)”. The “HRAS /KRAS” value at HRAS wild-type protein was “A (a compound having 10 or more and less than 20 is denoted as A)”. This compound displayed an IC50 in assay [2] of 10.3 nM.

Take `CCCN(C)C(=O)[C@@H]1CC(=O)N(C)[C@@H](COCC)C(=O)N[C@@H]([C@@H](C)CC)C(=O)N(C)CC(=O)N(C)[C@H]2C/C=C\CCN(C2=O)[C@@H](Cc2ccc(C(F)(F)F)cc2)C(=O)N(C)CC(=O)N[C@@H](CCc2ccc(C(F)(F)F)c(OC)c2)C(=O)N2C[C@H](OCC)C[C@H]2C(=O)NC2(CC(C)(C)C2)C(=O)N(C)[C@@H](C2CCCC2)C(=O)N1C` [PP2012]: in assay [1], the “NRAS /KRAS” value is “AA (a compound having 20 or more is denoted as AA)”. The “HRAS /KRAS” value on HRAS wild-type protein was “A (a compound having 10 or more and less than 20 is denoted as A)”. The same compound displayed an IC50 in assay [2] of 11.6 nM.

Take `CCCN(C)C(=O)[C@@H]1CC(=O)N(C)[C@@H](CC(F)F)C(=O)N[C@@H]([C@@H](C)CC)C(=O)N(C)CC(=O)N(C)[C@H]2C/C=C\CCN(C2=O)[C@@H](Cc2ccc(C(F)(F)F)cc2)C(=O)N(C)CC(=O)N[C@@H](CCc2ccc(C(F)(F)F)c(OC)c2)C(=O)N2C[C@H](OCC)C[C@H]2C(=O)NC2(CCC2)C(=O)N(C)[C@@H](C2CCCC2)C(=O)N1C` [PP2013]: the “NRAS /KRAS” value in assay [1] was “A (a compound having 10 or more and less than 20 is denoted as A)”. The “HRAS /KRAS” value on HRAS wild-type protein is “B (a compound having 3 or more and less than 10 is denoted as B)”. Further, half-maximal inhibition in assay [2] (IC50) was put at 7.7 nM.

`CCOC[C@H]1C(=O)N[C@@H]([C@@H](C)CC)C(=O)N(C)CC(=O)N(C)[C@H]2C/C=C\CCN(C2=O)[C@@H](Cc2ccc(C(F)(F)F)cc2)C(=O)N(C)CC(=O)N[C@@H](CCc2ccc(C(F)(F)F)c(OC)c2)C(=O)N2C[C@H](OCC)C[C@H]2C(=O)NC2(CC(C)(C)C2)C(=O)N(C)[C@@H](C2CCCC2)C(=O)N(C)[C@H](C(=O)N(C)CC)CC(=O)N1C` [PP2014]: in assay [1], the “NRAS /KRAS” value is “A (a compound having 10 or more and less than 20 is denoted as A)”. In addition, the “HRAS /KRAS” value on HRAS wild-type protein was “A (a compound having 10 or more and less than 20 is denoted as A)”. This compound also had an IC50 in assay [2] of 6.9 nM.

In the case of `CCCN(C)C(=O)[C@@H]1CC(=O)N(C)[C@@H](COCC)C(=O)N[C@@H]([C@@H](C)CC)C(=O)N(C)CC(=O)N(C)[C@H]2C/C=C\CCN(C2=O)[C@@H](Cc2ccc(C(F)(F)F)cc2)C(=O)N(C)CC(=O)N[C@@H](CCc2ccc(C(F)(F)F)c(OC)c2)C(=O)N2C[C@H](OCC)C[C@H]2C(=O)NC2(CCC2)C(=O)N(C)[C@@H](C2CCCC2)C(=O)N1C` [PP2015], the “NRAS /KRAS” value in assay [1] is “A (a compound having 10 or more and less than 20 is denoted as A)”. Further, at HRAS wild-type protein, the “HRAS /KRAS” value is “B (a compound having 3 or more and less than 10 is denoted as B)”. Besides, 5.6 nM corresponded to half-maximal inhibition in assay [2] (IC50).

Take `CCCOC[C@H]1C(=O)N[C@@H]([C@@H](C)CC)C(=O)N(C)CC(=O)N(C)[C@H]2C/C=C\CCN(C2=O)[C@@H](Cc2ccc(C(F)(F)F)cc2)C(=O)N(C)CC(=O)N[C@@H](CCc2ccc(C(F)(F)F)c(OC)c2)C(=O)N2C[C@H](OCC)C[C@H]2C(=O)NC2(CCC2)C(=O)N(C)[C@@H](C2CCCC2)C(=O)N(C)[C@H](C(=O)N(C)CC)CC(=O)N1C` [PP2016]: the “NRAS /KRAS” value in assay [1] is “A (a compound having 10 or more and less than 20 is denoted as A)”. Further, on HRAS wild-type protein, the “HRAS /KRAS” value is “A (a compound having 10 or more and less than 20 is denoted as A)”. Also, 8.2 nM corresponded to half-maximal inhibition in assay [2] (IC50).

As for `CCCN(C)C(=O)[C@@H]1CC(=O)N(C)[C@@H](CCOC)C(=O)N[C@@H]([C@@H](C)CC)C(=O)N(C)CC(=O)N(C)[C@H]2C/C=C\CCN(C2=O)[C@@H](Cc2ccc(C(F)(F)F)cc2)C(=O)N(C)CC(=O)N[C@@H](CCc2ccc(C(F)(F)F)c(OC)c2)C(=O)N2C[C@H](OCC)C[C@H]2C(=O)NC2(CCC2)C(=O)N(C)[C@@H](C2CCCC2)C(=O)N1C` [PP2018], the “NRAS /KRAS” value in assay [1] was “A (a compound having 10 or more and less than 20 is denoted as A)”. The “HRAS /KRAS” value at HRAS wild-type protein was “B (a compound having 3 or more and less than 10 is denoted as B)”. In assay [2], this compound gave an IC50 of 5.3 nM.

As to `CCCN(C)C(=O)[C@@H]1CC(=O)N(C)[C@@H](C(C)C)C(=O)N[C@@H]([C@@H](C)CC)C(=O)N(C)CC(=O)N(C)[C@H]2C/C=C\CCN(C2=O)[C@@H](Cc2ccc(C(F)(F)F)cc2)C(=O)N(C)CC(=O)N[C@@H](CCc2ccc(C(F)(F)F)c(OC)c2)C(=O)N2C[C@H](OCC)C[C@H]2C(=O)NC2(CCC2)C(=O)N(C)[C@@H](C2CCCC2)C(=O)N1C` [PP2020], the “NRAS /KRAS” value in assay [1] is “A (a compound having 10 or more and less than 20 is denoted as A)”. Besides, at HRAS wild-type protein, the “HRAS /KRAS” value was “A (a compound having 10 or more and less than 20 is denoted as A)”. For the same compound, the IC50 in assay [2] turned out to be 8.3 nM.

As to `CCO[C@@H]1C[C@H]2C(=O)NC3(CCC3)C(=O)N(C)[C@@H](C3CCCC3)C(=O)N(C)[C@H](C(=O)N(C)CC)CC(=O)N(C)[C@@H](C3CC3)C(=O)N[C@@H]([C@@H](C)CC)C(=O)N(C)CC(=O)N(C)[C@H]3C/C=C\CCN(C3=O)[C@@H](Cc3ccc(C(F)(F)F)cc3)C(=O)N(C)CC(=O)N[C@@H](CCc3ccc(C(F)(F)F)c(OC)c3)C(=O)N2C1` [PP2021], the “NRAS /KRAS” value in assay [1] was “A (a compound having 10 or more and less than 20 is denoted as A)”. On HRAS wild-type protein, the “HRAS /KRAS” value was “B (a compound having 3 or more and less than 10 is denoted as B)”. The IC50 in assay [2] came out at 4.9 nM.

As for `CCOC[C@H]1C(=O)N[C@@H]([C@@H](C)CC)C(=O)N(C)CC(=O)N(C)[C@H]2C/C=C\CCN(C2=O)[C@@H](Cc2ccc(C(F)(F)F)cc2)C(=O)N(C)CC(=O)N[C@@H](CCc2ccc(C(F)(F)F)c(OC)c2)C(=O)N2C[C@@H](C)C[C@H]2C(=O)NC2(CCC2)C(=O)N(C)[C@@H](C2CCCC2)C(=O)N(C)[C@H](C(=O)N(C)CC)CC(=O)N1C` [PP2026], the “NRAS /KRAS” value in assay [1] is “A (a compound having 10 or more and less than 20 is denoted as A)”. At HRAS wild-type protein, the “HRAS /KRAS” value is “A (a compound having 10 or more and less than 20 is denoted as A)”. In assay [2], this compound displayed an IC50 of 22.6 nM.

For the compound `CCCN(C)C(=O)[C@@H]1CC(=O)N(C)[C@@H](CC(F)F)C(=O)N[C@@H]([C@@H](C)CC)C(=O)N(C)CC(=O)N(C)[C@H]2C/C=C\CCN(C2=O)[C@@H](Cc2ccc(C(F)(F)F)cc2)C(=O)N(C)CC(=O)N[C@@H](CCc2cc(F)c(C(F)(F)F)c(F)c2)C(=O)N2C[C@H](OCC)C[C@H]2C(=O)NC2(CC(C)(C)C2)C(=O)N(C)[C@@H](C2CCCC2)C(=O)N1C` [PP2030], the “NRAS /KRAS” value in assay [1] was “A (a compound having 10 or more and less than 20 is denoted as A)”. Also, at HRAS wild-type protein, the “HRAS /KRAS” value is “A (a compound having 10 or more and less than 20 is denoted as A)”. In assay [2], this compound returned an IC50 of 4.5 nM.

As to `CCCN(C)C(=O)[C@@H]1CC(=O)N(C)[C@@H](COCC)C(=O)N[C@@H]([C@@H](C)CC)C(=O)N(C)CC(=O)N(C)[C@H]2C/C=C\CCN(C2=O)[C@@H](Cc2ccc(C(F)(F)F)cc2)C(=O)N(C)CC(=O)N[C@@H](CCc2cc(F)c(C(F)(F)F)c(F)c2)C(=O)N2C[C@H](OCC)C[C@H]2C(=O)NC2(CC(C)(C)C2)C(=O)N(C)[C@@H](C2CCCC2)C(=O)N1C` [PP2031], the “NRAS /KRAS” value in assay [1] is “B (a compound having 3 or more and less than 10 is denoted as B)”. Also, on HRAS wild-type protein, the “HRAS /KRAS” value was “B (a compound having 3 or more and less than 10 is denoted as B)”. Moreover, in assay [2], the IC50 stood at 5.5 nM.

Regarding `CCOC[C@H]1C(=O)N[C@@H]([C@@H](C)CC)C(=O)N(C)CC(=O)N(C)[C@H]2C/C=C\CCN(C2=O)[C@@H](Cc2ccc(C(F)(F)F)cc2)C(=O)N(C)CC(=O)N[C@@H](CCc2cc(F)c(C(F)(F)F)c(F)c2)C(=O)N2C[C@H](OCC)C[C@H]2C(=O)NC2(CC(C)(C)C2)C(=O)N(C)[C@@H](C2CCCC2)C(=O)N(C)[C@H](C(=O)N(C)CC)CC(=O)N1C` [PP2032], in assay [1], the “NRAS /KRAS” value is “A (a compound having 10 or more and less than 20 is denoted as A)”. Also, at HRAS wild-type protein, the “HRAS /KRAS” value is “B (a compound having 3 or more and less than 10 is denoted as B)”. For the same compound, half-maximal inhibition in assay [2] (IC50) was put at 8.1 nM.
